Results published in US20260176320A1, “MODULATORS OF G-PROTEIN COUPLED RECEPTORS” (priority 2018, published 2026).
Read-outs that look alike come from different tables or passages of the source.

Columns and labels:
[1] = target: T1, GLP-1R (Homo sapiens, UniProt P43220); test: HitHunter cAMP assay (GLP-1R); type: cell-based; conditions: cAMP; for Emax: read-out: (Emax) GLP-1R
How it was run: (§1)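 Luminescent readout of cAMP by enzyme-fragment immunocompetition gave agonist concentration-response data. Cells (10,000/well) sat in HBSS buffer containing IBMX 625 μM, HEPES 10 mM and BSA 0.2%, exposed to agonist for 30 min at room temperature.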

[2] = target: T2, GIP-R (Homo sapiens, UniProt P48546); test: HitHunter cAMP assay (GIP-R); type: cell-based; conditions: cAMP; for Emax: read-out: (Emax) GIP-R
T2 sequence (P48546 22-466): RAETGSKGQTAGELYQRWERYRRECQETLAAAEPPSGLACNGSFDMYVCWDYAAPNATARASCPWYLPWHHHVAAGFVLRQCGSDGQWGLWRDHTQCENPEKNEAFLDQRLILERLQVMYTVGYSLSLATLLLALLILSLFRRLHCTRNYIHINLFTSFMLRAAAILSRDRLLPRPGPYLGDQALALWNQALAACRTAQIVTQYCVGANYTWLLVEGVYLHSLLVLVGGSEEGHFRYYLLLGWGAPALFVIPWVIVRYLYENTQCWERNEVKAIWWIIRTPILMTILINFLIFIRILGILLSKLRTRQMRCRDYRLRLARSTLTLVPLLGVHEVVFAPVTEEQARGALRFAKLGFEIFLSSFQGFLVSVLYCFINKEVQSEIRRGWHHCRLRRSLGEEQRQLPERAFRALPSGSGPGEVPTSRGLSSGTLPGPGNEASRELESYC
How it was run: as §1

[3] = target: T1, GLP-1R; test: PathHunter β-arrestin assay; type: cell-based
How it was run: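 Overnight-plated cells; 0.2% BSA medium; agonist 22-pt 2× dilution series, duplicate; 90 min, 37 °C/5% CO2; detection reagent 3 h RT, dark; luminescence.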

[4] = system: mice; test: Glucose tolerance test (GTT); type: in vivo, mouse; conditions: 24 h GTT, s.c., percent of vehicle
Procedure: Freestyle Lite glucometer and strips; compounds to be tested; sterilized glucose solution 200 mg/ml.
Compounds were diluted in PBS from the 1 mM DMSO stocks right before injection. Body weight and baseline blood glucose level for each mouse were measured. Tails were snipped using sterile scissors; blood from tails was used to measure glucose. For 0.25 h GTT, mice were fasted for 5-6 h and injected with compound subcutaneously 15 mins before glucose injection. For 4 h GTT, mice were fasted O/N for 16 h and injected with compound subcutaneously 4 h before glucose injection. For 16 h GTT, mice were injected with compound subcutaneously 16 h before glucose injection; food was removed at the same time. For 24 h GTT, mice were injected with compound subcutaneously 24 h before glucose injection; food was removed 5-6 h before glucose injection. 20% glucose in water was prepared; the solution was sterilized by 0.2 μm-filtration. An intraperitoneal injection of glucose (2 g/kg) was given to the mouse. Continued to take blood samples from the tail. Blood glucose was measured at 10, 20, 30, 40, 60, 90, and 120 minutes after glucose injection. Between each of these time points, the mouse was returned to its cage and monitored (at least 6 replicate mice were used for each time-point). The average glucose measurements were plotted as a function of time and the area under the curve (AUC) was determined.

[5] = Table 3, read-out: EC50 GLP-1R/nM
[6] = Table 3A, read-out: EC50 GLP-1R/nM
[7] = Table 3, read-out: EC50 GIP-R/nM
[8] = Table 3A, read-out: EC50 GIP-R/nM
[9] = PathHunter β-arrestin assay, read-out: β-arrestin activity EC50

T1 sequence (P43220 24-463): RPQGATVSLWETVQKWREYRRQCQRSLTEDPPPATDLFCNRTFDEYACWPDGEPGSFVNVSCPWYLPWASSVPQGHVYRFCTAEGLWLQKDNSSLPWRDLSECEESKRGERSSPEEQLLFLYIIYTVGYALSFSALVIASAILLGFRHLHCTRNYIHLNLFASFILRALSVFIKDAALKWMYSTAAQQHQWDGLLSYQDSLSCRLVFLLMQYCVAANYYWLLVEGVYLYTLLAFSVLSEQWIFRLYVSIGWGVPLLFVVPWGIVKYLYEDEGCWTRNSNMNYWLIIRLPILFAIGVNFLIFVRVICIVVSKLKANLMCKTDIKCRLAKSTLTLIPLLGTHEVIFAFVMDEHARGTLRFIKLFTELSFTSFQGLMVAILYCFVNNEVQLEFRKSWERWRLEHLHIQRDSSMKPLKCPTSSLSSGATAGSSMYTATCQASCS

## CCCCCCCCCCCCCCCC(=O)N[C@@H](CCC(=O)NCCCC[C@H](NC(=O)[C@H](CO)NC(=O)[C@@H]1CCCN1C(=O)[C@@H]1CCCN1C(=O)[C@@H]1CCCN1C(=O)[C@H](C)NC(=O)CNC(=O)[C@H](CO)NC(=O)[C@H](CO)NC(=O)[C@@H]1CCCN1C(=O)CNC(=O)CNC(=O)[C@H](C)NC(=O)[C@H](CC(C)C)NC(=O)[C@H](CC(C)C)NC(=O)[C@H](Cc1c[nH]c2ccccc12)NC(=O)[C@H](CC(N)=O)NC(=O)[C@@H](NC(=O)[C@H](Cc1ccccc1)NC(=O)[C@H](CCC(=O)O)NC(=O)C(C)(C)NC(=O)[C@H](C)NC(=O)[C@H](C)NC(=O)[C@H](CCC(N)=O)NC(=O)[C@H](CCCCN)NC(=O)[C@H](CC(=O)O)NC(=O)[C@H](CC(C)C)NC(=O)[C@H](Cc1ccc(O)cc1)NC(=O)[C@@H](NC(=O)[C@H](CO)NC(=O)[C@H](Cc1ccc(O)cc1)NC(=O)[C@H](CC(=O)O)NC(=O)[C@H](CO)NC(=O)[C@@H](NC(=O)[C@H](Cc1ccccc1)NC(=O)[C@@H](NC(=O)CNC(=O)[C@H](CCC(=O)O)NC(=O)CSCC(=O)NCCN1CCC(C)C1=O)[C@@H](C)O)[C@@H](C)O)[C@@H](C)CC)C(C)C)C(N)=O)C(=O)O (single isomer, unassigned) [Compound 69]
[1]; Table 3
  (Emax) GLP-1R: 104%
[1]; [5]
  EC50: 0.1 to 1 nM
[1]; Table 3A
  (Emax) GLP-1R: 104%
[1]; [6]
  EC50: 0.1 to 1 nM
[2]; Table 3
  (Emax) GIP-R: 75%
[2]; [7]
  EC50: 1 to 10 nM
[2]; Table 3A
  (Emax) GIP-R: 75%
[2]; [8]
  EC50: 1 to 10 nM
[3]; [9]
  EC50: > 1000 nM
[4]; dose range 2-5 nmol/kg
  AUC score: 2 (AUC score 2 = 26-50%)

## CCCCCCCCCCCCCCCC(=O)N[C@@H](CCC(=O)NCCCC[C@H](NC(=O)[C@H](CO)NC(=O)[C@@H]1CCCN1C(=O)[C@@H]1CCCN1C(=O)[C@@H]1CCCN1C(=O)[C@H](C)NC(=O)CNC(=O)[C@H](CO)NC(=O)[C@H](CO)NC(=O)[C@@H]1CCCN1C(=O)CNC(=O)CNC(=O)[C@H](C)NC(=O)[C@H](CC(C)C)NC(=O)[C@H](CC(C)C)NC(=O)[C@H](Cc1c[nH]c2ccccc12)NC(=O)[C@H](CC(N)=O)NC(=O)[C@@H](NC(=O)[C@H](Cc1ccccc1)NC(=O)[C@H](CCC(=O)O)NC(=O)C(C)(C)NC(=O)[C@H](C)NC(=O)[C@H](C)NC(=O)[C@H](CCC(N)=O)NC(=O)[C@H](CCCCN)NC(=O)[C@H](CC(=O)O)NC(=O)[C@H](CC(C)C)NC(=O)[C@H](Cc1ccc(O)cc1)NC(=O)[C@@H](NC(=O)[C@H](CO)NC(=O)[C@H](Cc1ccc(O)cc1)NC(=O)[C@H](CC(=O)O)NC(=O)[C@H](CO)NC(=O)[C@@H](NC(=O)[C@H](Cc1ccccc1)NC(=O)[C@@H](NC(=O)CNC(=O)[C@H](CCC(=O)O)NC(=O)CCNC(=O)CN1CCOCC1=O)[C@@H](C)O)[C@@H](C)O)[C@@H](C)CC)C(C)C)C(N)=O)C(=O)O [Compound 233]
[1]; Table 3A
  Emax: 96%
[1]; [6]
  EC50: < 0.1 nM
[2]; Table 3A
  Emax: 77%
[2]; [8]
  EC50: 1 to 10 nM
[3]; [9]
  EC50: 10 to 1000 nM
[4]; dose range 2-5 nmol/kg
  AUC score: 2 (AUC score 2 = 26-50%)

## CCCCCCCCCCCCCCCC(=O)N[C@@H](CCC(=O)NCCCC[C@H](NC(=O)[C@H](CO)NC(=O)[C@@H]1CCCN1C(=O)[C@@H]1CCCN1C(=O)[C@@H]1CCCN1C(=O)[C@H](C)NC(=O)CNC(=O)[C@H](CO)NC(=O)[C@H](CO)NC(=O)[C@@H]1CCCN1C(=O)CNC(=O)CNC(=O)[C@H](C)NC(=O)[C@H](CC(C)C)NC(=O)[C@H](CC(C)C)NC(=O)[C@H](Cc1c[nH]c2ccccc12)NC(=O)[C@H](CC(N)=O)NC(=O)[C@@H](NC(=O)[C@H](Cc1ccccc1)NC(=O)[C@H](CCC(=O)O)NC(=O)C(C)(C)NC(=O)[C@H](C)NC(=O)[C@H](C)NC(=O)[C@H](CCC(N)=O)NC(=O)[C@H](CCCCN)NC(=O)[C@H](CC(=O)O)NC(=O)[C@H](CC(C)C)NC(=O)[C@H](Cc1ccc(O)cc1)NC(=O)[C@@H](NC(=O)[C@H](CO)NC(=O)[C@H](Cc1ccc(O)cc1)NC(=O)[C@H](CC(=O)O)NC(=O)[C@H](CO)NC(=O)[C@@H](NC(=O)[C@H](Cc1ccccc1)NC(=O)[C@@H](NC(=O)CNC(=O)[C@H](CCC(=O)O)NC(=O)CSCC(=O)NCCN1C(=O)C(C)=C(C)C1=O)[C@@H](C)O)[C@@H](C)O)[C@@H](C)CC)C(C)C)C(N)=O)C(=O)O [Compound 77]
[1]; EC50 GLP-1R/nM, Table 3
  EC50: 0.1 to 1 nM
[1]; EC50 GLP-1R/nM, Table 3A
  EC50: 0.1 to 1 nM
[1]; Table 3
  Emax: 90%
[1]; Table 3A
  Emax: 90%
[2]; EC50 GIP-R/nM, Table 3
  EC50: 0.1 to 1 nM
[2]; EC50 GIP-R/nM, Table 3A
  EC50: 0.1 to 1 nM
[2]; Table 3
  Emax: 82%
[2]; Table 3A
  Emax: 82%
[3]
  EC50: > 1000 nM
[4]; dose range 5.1-15 nmol/kg
  AUC score: 2 (AUC score 2 = 26-50%)

## CCCCCCCCCCCCCCCC(=O)N[C@@H](CCC(=O)NCCCC[C@H](NC(=O)[C@H](CO)NC(=O)[C@@H]1CCCN1C(=O)[C@@H]1CCCN1C(=O)[C@@H]1CCCN1C(=O)[C@H](C)NC(=O)CNC(=O)[C@H](CO)NC(=O)[C@H](CO)NC(=O)[C@@H]1CCCN1C(=O)CNC(=O)CNC(=O)[C@H](C)NC(=O)[C@H](CC(C)C)NC(=O)[C@H](CC(C)C)NC(=O)[C@H](Cc1c[nH]c2ccccc12)NC(=O)[C@H](CC(N)=O)NC(=O)[C@@H](NC(=O)[C@H](Cc1ccccc1)NC(=O)[C@H](CCC(=O)O)NC(=O)C(C)(C)NC(=O)[C@H](C)NC(=O)[C@H](C)NC(=O)[C@H](CCC(N)=O)NC(=O)[C@H](CCCCN)NC(=O)[C@H](CC(=O)O)NC(=O)[C@H](CC(C)C)NC(=O)[C@H](Cc1ccc(O)cc1)NC(=O)[C@@H](NC(=O)[C@H](CO)NC(=O)[C@H](Cc1ccc(O)cc1)NC(=O)[C@H](CC(=O)O)NC(=O)[C@H](CO)NC(=O)[C@@H](NC(=O)[C@H](Cc1ccccc1)NC(=O)[C@@H](NC(=O)CNC(=O)[C@H](CCC(=O)O)NC(=O)CSCC(=O)N1CCNC1=O)[C@@H](C)O)[C@@H](C)O)[C@@H](C)CC)C(C)C)C(N)=O)C(=O)O [Compound 98]
[1]; Table 3
  Emax: 96%
[1]; [5]
  EC50: 0.1 to 1 nM
[1]; Table 3A
  Emax: 96%
[1]; [6]
  EC50: 0.1 to 1 nM
[2]; [7]
  EC50: > 1000 nM
[2]; [8]
  EC50: > 1000 nM
[2]; read-out: (Emax) GIP-R at 1 μM, Table 3, at 1 μM
  Emax at 1 µM: < 5%
[3]; [9]
  EC50: > 1000 nM
[4]; dose range 5.1-15 nmol/kg
  AUC score: 2 (AUC score 2 = 26-50%)

## CCCCCCCCCCCCCCCC(=O)N[C@@H](CCC(=O)NCCCC[C@H](NC(=O)[C@H](CO)NC(=O)[C@@H]1CCCN1C(=O)[C@@H]1CCCN1C(=O)[C@@H]1CCCN1C(=O)[C@H](C)NC(=O)CNC(=O)[C@H](CO)NC(=O)[C@H](CO)NC(=O)[C@@H]1CCCN1C(=O)CNC(=O)CNC(=O)[C@H](C)NC(=O)[C@H](CC(C)C)NC(=O)[C@H](CC(C)C)NC(=O)[C@H](Cc1c[nH]c2ccccc12)NC(=O)[C@H](CC(N)=O)NC(=O)[C@@H](NC(=O)[C@H](Cc1ccccc1)NC(=O)[C@H](CCC(=O)O)NC(=O)C(C)(C)NC(=O)[C@H](C)NC(=O)[C@H](C)NC(=O)[C@H](CCC(N)=O)NC(=O)[C@H](CCCCN)NC(=O)[C@H](CC(=O)O)NC(=O)[C@H](CC(C)C)NC(=O)[C@H](Cc1ccc(O)cc1)NC(=O)[C@@H](NC(=O)[C@H](CO)NC(=O)[C@H](Cc1ccc(O)cc1)NC(=O)[C@H](CC(=O)O)NC(=O)[C@H](CO)NC(=O)[C@@H](NC(=O)[C@H](Cc1ccccc1)NC(=O)[C@@H](NC(=O)CNC(=O)[C@H](CCC(=O)O)NC(=O)CSCC(=O)NCCN1C(=O)CCC(C)(C)C1=O)[C@@H](C)O)[C@@H](C)O)[C@@H](C)CC)C(C)C)C(N)=O)C(=O)O [Compound 81]
[1]; EC50 GLP-1R/nM, Table 3
  EC50: 0.1 to 1 nM
[1]; EC50 GLP-1R/nM, Table 3A
  EC50: 0.1 to 1 nM
[1]; Table 3
  Emax: 96%
[1]; Table 3A
  Emax: 96%
[2]; EC50 GIP-R/nM, Table 3
  EC50: 0.1 to 1 nM
[2]; EC50 GIP-R/nM, Table 3A
  EC50: 0.1 to 1 nM
[2]; Table 3
  Emax: 89%
[2]; Table 3A
  Emax: 89%
[3]
  EC50: > 1000 nM
[4]; dose range 2-5 nmol/kg
  AUC score: 3 (AUC score 3 = 51-75%)
